As a reminder, the half-life is the time needed for the level to fall by half in the phase considered.

We go through two molecules from patent publication US6399100B1, “Controlled release pharmaceutical compositions containing tiagabine” (Elan Corporation, plc, priority 1997, dated 2002).

Data set [1] is described as follows: Aqueous solubility of raw material. From the text: The tiagabine employed in the following examples is the monohydrate crystalline form for the hydrochloride salt of the R isomer.
The conditions of data set [2]: cited from earlier work.
The conditions of data set [3]: four hours after ingestion, deliberate overdose; cited from earlier work.

Take `Cc1ccsc1C(=CCCN1CCCC(C(=O)O)C1)c1sccc1C.Cl` (centres unmarked) [tiagabine hydrochloride monohydrate, N-(4,4-di(3-methylthien-2-yl)but-3-enyl) nipecotic acid hydrochloride]: in data set [1], the aqueous solubility result is given as “high”.
Consider `Cc1ccsc1C(=CCCN1CCCC(C(=O)O)C1)c1sccc1C` (centres unmarked) [tiagabine, N-(4,4-di(3-methylthien-2-yl)but-3-enyl) nipecotic acid], for which, in data set [2] (in humans), the half-life was 5 to 8 h. The elimination half-life in data set [2] (lowered by enzyme inducers) was 2 to 3 h. In addition, in data set [3], the Plasma levels was 3100 ng/mL and the “plasma level relative to typical steady state therapeutic dosing levels” value is on record as 30 times.
